The target of data set [1] is Dual specificity tyrosine-phosphorylation-regulated kinase 1A (Rattus norvegicus, UniProt Q63470). In kind it is biochemical, Homo sapiens.
Data set [2] concerns the target T1, RNA-binding protein pos-1 (Caenorhabditis elegans, UniProt G5EF15).
T1 sequence (G5EF15 whole entry): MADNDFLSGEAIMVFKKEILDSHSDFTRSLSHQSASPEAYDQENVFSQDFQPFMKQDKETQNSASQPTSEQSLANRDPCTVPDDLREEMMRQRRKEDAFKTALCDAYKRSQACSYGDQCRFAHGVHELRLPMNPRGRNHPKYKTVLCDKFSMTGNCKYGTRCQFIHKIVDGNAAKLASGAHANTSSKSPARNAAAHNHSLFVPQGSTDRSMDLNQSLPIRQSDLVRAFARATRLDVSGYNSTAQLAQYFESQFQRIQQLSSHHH
Put plainly: inhibitors of POS-1/mex-3 RNA binding, dose response, biochemical, fluorescence polarization (AID 1964).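 Also: purified POS-1 fused to maltose binding protein made in E. coli; potency of compounds blocking POS-1 binding to fluorescent RNA.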 In general terms: In fluorescence polarisation assays a small probe gives low polarisation when free and higher when bound to something large.

Data set [3] deals with T2, Zinc finger protein mex-5 (Caenorhabditis elegans, UniProt Q9XUB2).
T2 sequence (Q9XUB2 whole entry): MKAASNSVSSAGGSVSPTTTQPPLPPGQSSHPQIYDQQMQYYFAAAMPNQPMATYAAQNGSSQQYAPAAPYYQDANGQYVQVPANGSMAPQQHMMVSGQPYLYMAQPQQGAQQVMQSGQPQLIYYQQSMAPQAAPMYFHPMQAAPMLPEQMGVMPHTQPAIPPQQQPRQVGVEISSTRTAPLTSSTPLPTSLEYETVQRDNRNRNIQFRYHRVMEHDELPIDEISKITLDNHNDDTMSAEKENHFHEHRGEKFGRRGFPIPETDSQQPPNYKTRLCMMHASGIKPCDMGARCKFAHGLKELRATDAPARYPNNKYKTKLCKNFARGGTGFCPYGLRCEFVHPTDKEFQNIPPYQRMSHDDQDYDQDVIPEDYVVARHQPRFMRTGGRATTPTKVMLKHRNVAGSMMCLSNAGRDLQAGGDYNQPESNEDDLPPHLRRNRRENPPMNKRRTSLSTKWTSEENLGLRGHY
Nature of the data set: MEX-5/TCR-2 RNA interaction inhibitors, dose response, biochemical, C. elegans, fluorescence polarization (AID 1960).

The next data set has as its target Keap1/Nrf2 (Homo sapiens, UniProt Q14145). Nature of the data set: Keap1-Nrf2 protein-protein interaction inhibitors, dose response, biochemical, fluorescence polarization, cherry-picked samples (AID 588683).
Data set [4] deals with T3, Ubiquitin-conjugating enzyme E2 N (Homo sapiens, UniProt P61088).
T3 sequence (P61088 whole entry): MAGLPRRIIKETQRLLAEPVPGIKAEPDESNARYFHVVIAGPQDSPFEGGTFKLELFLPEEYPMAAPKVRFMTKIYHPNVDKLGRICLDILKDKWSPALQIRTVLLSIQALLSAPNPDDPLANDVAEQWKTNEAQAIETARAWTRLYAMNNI
In kind it is functional.

Data set [5] deals with T4, Microphthalmia-associated transcription factor (Homo sapiens, UniProt O75030).
T4 sequence (O75030 whole entry): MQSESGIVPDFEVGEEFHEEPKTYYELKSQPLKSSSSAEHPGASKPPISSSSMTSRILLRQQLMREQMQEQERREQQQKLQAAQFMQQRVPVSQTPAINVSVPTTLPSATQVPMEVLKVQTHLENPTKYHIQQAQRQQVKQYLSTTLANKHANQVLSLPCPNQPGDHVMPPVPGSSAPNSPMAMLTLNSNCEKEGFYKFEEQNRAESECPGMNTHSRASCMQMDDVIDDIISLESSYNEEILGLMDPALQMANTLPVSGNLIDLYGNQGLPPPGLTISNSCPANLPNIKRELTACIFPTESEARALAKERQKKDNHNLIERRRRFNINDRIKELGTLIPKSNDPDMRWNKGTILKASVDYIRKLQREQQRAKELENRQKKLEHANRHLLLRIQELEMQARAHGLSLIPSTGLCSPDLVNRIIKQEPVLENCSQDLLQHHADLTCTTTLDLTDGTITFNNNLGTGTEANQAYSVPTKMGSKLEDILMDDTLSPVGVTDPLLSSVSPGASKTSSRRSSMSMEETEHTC
Put plainly: TRPM1 promoter luciferase signal decrease, dose response, MITF inhibitor project, cell-based, SK-MEL-5, cherry-picked, set 3 (AID 493073).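 Also: SK-MEL-5 melanoma cells with luciferase driven by the MITF target TRPM1 promoter.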 It counts as functional.

In the next data set the test system is H9c2. Put plainly: cells. In kind it is functional, cell-based. The conditions noted are these: Rattus norvegicus, H9c2, Myocardium.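 Also: confirmatory concentration-response retest of ultra-high-throughput screening hits for modulation of myocardial damage; cell death induced by hydrogen peroxide oxidative stress; compound pretreatment for 60 min then peroxide exposure for 2 h; potency is for protecting the cells against peroxide damage rather than for killing them.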
A further data set deals with A-375. Nature of the data set: A375 melanoma cell viability reduction, dose response, counter-screen for MITF modulator project, cherry-pick samples, set 2 (AID 540335). In kind it is functional, cell-based. The conditions noted are these: Homo sapiens. For orientation: The purpose of a counterscreen is to sort out artefacts and off-target activity.
Data set [6] can be described thus: Shn3 3'UTR reporter inhibitors, dose response, cell-based, Clone20 osteoblasts, firefly luciferase, cherry-picked (AID 624132).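 Also: firefly luciferase luminescence from reporter carrying the Shn3 3'UTR in osteoblasts.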 In kind it is functional.
Data set [7] can be described thus: HepG2 cell cytotoxicity, dose response, cytotoxicity control for Shn3 inhibitor project, CellTiter-Glo, cherry-picked (AID 624134). It counts as functional, cell-based. Background: Cellular ATP, detected with luciferase, serves as a proxy for viable cell number.
Data set [8] is described as follows: control 3'UTR Renilla luciferase suppression, dose response, counter-screen for Shn3 inhibitor project, cell-based, Clone20-Shn3RL, cherry-picked (AID 624133). In kind it is functional.
A short description of data set [9]: insulin promoter down-regulators in MIN6 cells, imaging, high-content screening, mouse beta cells (AID 1628). It counts as functional.
A short description of data set [10]: cytotoxicity in MIN6 insulinoma cells, dose response, cytotoxicity control, cell-based, mouse insulinoma (AID 2122).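 Also: confirmatory high-throughput counterscreen run to flag cytotoxic compounds; mouse MIN-6 beta cells carrying an insulin promoter eGFP reporter.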 In kind it is functional.
The target in a further data set is Cytochrome P450 2D6 (Homo sapiens, UniProt P10635).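 Also: CYP2D6 member of a cytochrome P450 panel assay.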
In data set [11] the target is T5, Lysine-specific demethylase 4C (Homo sapiens, UniProt Q9H3R0).
T5 sequence (Q9H3R0 whole entry): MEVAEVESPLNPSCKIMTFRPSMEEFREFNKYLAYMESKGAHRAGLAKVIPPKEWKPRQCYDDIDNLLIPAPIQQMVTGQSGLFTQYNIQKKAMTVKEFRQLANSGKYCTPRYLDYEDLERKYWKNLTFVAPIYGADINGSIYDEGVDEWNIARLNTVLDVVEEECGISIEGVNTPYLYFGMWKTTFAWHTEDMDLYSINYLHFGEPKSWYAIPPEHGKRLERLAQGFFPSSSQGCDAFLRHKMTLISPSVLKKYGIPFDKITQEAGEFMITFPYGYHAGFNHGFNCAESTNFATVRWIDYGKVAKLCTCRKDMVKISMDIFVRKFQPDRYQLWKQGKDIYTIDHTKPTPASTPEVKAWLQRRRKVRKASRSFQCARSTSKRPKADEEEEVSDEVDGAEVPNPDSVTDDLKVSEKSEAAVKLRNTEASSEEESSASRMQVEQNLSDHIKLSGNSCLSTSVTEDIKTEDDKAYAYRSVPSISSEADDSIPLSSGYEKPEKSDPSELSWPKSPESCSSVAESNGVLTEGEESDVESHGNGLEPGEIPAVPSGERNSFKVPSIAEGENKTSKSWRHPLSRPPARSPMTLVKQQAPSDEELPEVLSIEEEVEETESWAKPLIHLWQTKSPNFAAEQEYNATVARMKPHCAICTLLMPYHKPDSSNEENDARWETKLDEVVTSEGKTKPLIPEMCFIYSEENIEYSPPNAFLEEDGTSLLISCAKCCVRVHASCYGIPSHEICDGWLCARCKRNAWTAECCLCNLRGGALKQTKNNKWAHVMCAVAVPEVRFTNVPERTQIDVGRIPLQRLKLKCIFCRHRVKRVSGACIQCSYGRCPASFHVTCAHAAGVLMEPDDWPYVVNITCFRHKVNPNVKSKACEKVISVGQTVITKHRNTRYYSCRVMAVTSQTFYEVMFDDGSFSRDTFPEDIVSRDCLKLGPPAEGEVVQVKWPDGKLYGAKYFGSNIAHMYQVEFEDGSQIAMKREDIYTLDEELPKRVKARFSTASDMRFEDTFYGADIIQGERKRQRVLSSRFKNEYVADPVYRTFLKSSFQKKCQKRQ
Nature of the data set: GASC-1 (JMJD2C) histone demethylase inhibitors, dose response, biochemical, DELFIA europium, cherry-picked samples (AID 488835). It counts as functional.

Data set [12] deals with T6, Heat shock factor protein 1 (Mus musculus, UniProt P38532).
T6 sequence (P38532 whole entry): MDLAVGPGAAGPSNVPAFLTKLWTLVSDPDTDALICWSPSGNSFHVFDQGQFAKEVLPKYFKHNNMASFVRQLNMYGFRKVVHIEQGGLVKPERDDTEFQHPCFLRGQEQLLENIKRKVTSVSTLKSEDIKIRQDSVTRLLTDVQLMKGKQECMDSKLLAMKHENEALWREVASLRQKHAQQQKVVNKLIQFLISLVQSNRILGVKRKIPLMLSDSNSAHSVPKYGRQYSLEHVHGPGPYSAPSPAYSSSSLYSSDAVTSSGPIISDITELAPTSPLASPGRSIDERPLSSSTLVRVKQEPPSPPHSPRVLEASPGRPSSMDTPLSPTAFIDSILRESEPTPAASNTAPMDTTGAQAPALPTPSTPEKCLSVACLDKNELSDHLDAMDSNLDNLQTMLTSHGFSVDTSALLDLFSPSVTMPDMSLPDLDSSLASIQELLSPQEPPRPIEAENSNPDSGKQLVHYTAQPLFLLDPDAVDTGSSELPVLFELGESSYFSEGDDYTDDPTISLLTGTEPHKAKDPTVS
Put plainly: inhibition of MG132-induced HSE-luciferase signal, confirmation, cell-based, NIH3T3, luminescence, dose retest (AID 2382).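 Also: NIH3T3 fibroblasts with HSF1-driven luciferase reporter stressed by proteasome inhibitor MG132; luminescence from HSF1-driven luciferase expression after 8 hours of MG132 stress.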 It counts as functional.

A further data set has as its system INS1. Put plainly: beta cell apoptosis inhibitors, cytokine rescue, dose response, luminescence, retest (AID 449756).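 Also: cell death triggered by IL-1 beta plus TNF-alpha plus IFN-gamma mixture; protective hits raise ATP signal compared with cytokine alone wells.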 It counts as functional, cell-based. As to conditions: Rattus norvegicus.

Calls of active or inactive are those of the source.

The term AC50 denotes the concentration at which the activity in the assay is half-maximal. The term EC50 denotes the concentration giving half of the maximal effect. The term IC50 denotes the point on the concentration scale where inhibition reaches its midpoint.

Chain of Cytochrome P450 2D6 (P10635 whole entry): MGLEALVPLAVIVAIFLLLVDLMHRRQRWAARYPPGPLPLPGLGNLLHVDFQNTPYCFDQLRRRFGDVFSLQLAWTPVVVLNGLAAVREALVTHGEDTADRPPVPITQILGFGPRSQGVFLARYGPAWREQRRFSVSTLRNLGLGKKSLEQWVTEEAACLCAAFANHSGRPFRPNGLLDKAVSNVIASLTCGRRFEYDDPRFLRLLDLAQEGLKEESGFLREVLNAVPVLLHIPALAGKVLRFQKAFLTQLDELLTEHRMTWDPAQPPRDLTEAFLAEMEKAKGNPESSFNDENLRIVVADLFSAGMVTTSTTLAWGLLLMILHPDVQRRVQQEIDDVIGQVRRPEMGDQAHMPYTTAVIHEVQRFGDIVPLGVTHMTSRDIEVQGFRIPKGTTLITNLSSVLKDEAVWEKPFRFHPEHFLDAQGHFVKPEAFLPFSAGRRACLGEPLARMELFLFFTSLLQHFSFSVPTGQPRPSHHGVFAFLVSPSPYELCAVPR
Chain of Keap1/Nrf2 (Q16236 whole entry): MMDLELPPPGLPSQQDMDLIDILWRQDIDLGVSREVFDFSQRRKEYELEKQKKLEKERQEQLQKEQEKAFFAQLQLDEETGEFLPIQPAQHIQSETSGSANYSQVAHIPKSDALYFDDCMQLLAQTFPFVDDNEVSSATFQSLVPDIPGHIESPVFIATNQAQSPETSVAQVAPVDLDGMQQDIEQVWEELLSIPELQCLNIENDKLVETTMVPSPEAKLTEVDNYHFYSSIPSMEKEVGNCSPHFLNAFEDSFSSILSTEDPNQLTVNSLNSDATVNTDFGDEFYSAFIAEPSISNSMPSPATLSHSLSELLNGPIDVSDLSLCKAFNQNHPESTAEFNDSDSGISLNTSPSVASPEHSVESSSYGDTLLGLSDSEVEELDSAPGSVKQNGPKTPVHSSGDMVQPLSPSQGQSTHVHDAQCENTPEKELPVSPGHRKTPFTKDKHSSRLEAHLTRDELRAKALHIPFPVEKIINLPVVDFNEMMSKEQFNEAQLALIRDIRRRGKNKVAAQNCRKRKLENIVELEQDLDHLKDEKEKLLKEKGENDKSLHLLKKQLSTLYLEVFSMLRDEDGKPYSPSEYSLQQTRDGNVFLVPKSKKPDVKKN
Chain of Keap1/Nrf2 (Q14145 whole entry): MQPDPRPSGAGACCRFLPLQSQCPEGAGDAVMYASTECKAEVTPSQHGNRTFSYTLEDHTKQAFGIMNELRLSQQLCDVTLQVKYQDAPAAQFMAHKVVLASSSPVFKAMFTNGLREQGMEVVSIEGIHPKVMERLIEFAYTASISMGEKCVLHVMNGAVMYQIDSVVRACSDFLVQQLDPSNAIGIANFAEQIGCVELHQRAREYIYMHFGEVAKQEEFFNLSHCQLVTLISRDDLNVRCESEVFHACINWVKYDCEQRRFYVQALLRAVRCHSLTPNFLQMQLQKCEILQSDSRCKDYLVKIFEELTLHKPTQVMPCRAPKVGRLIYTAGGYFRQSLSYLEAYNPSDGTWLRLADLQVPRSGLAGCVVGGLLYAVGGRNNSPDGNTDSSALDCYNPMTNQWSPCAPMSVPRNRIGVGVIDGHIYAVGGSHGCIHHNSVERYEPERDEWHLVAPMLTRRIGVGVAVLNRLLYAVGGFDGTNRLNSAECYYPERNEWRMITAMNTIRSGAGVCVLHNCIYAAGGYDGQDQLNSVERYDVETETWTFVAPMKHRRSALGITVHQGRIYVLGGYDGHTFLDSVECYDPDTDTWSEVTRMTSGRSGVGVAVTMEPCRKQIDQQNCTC

In the case of `O=C(Cc1c(F)cccc1Cl)Nc1nc2ccccc2s1`, in data set [1], the AC50 is 7.77 µM (active).
On to `CCCCOc1ccc(/C=C2/Sc3ccccc3C2=O)cc1`, for which the EC50 is 158 µM (inconclusive) in data set [2] and 177 µM (inconclusive) in [3]. Moreover, the AC50 on Keap1/Nrf2 is > 52 µM (inactive).
Take `CC(Oc1cccc(Br)c1)C(=O)NNC(=O)c1ccccn1` (stereo unspecified): the IC50 in [4] was > 20 µM (inactive); in the data set with H9c2, > 79 µM (inactive). The AC50 in data set [5] is 7.18 µM (active); in the data set with A-375 it was 41.2 µM (active); in data set [6], 3.36 µM (active); in [7], 49.4 µM (active); in [8] it was 3.19 µM (active).
Turning to `COc1cc(N2CN=c3s/c(=C\c4ccccn4)c(=O)n3C2)cc(OC)c1OC`, the AC50 in data set [1] is 3.08 µM (active).
Turning to `CC(C)C(=O)Nc1cccc(C(=O)N2CCCCC2C)c1` (stereo unspecified), the IC50 is 2.43 µM (active) in [9] and 1.99 µM (active) in data set [10].
Regarding `O=C(O)c1nn(-c2ccccc2-c2nnc(O)nc2O)c(=O)[nH]c1=O`, the AC50 entry at Cytochrome P450 2D6 is on record as “inconclusive”.
With `Cc1cccc(N2C(=O)NC(=O)/C(=C\c3cnc(-c4ccccc4)nc3)C2=O)c1`, the concentration at half-maximal activity (AC50) in [11] was 15.2 µM (active).
In the case of `Cc1ccc(Cn2c(=N)n(CC(=O)c3ccccc3)c3ccccc32)cc1`, the IC50 was 1.8 µM (active) in data set [9] and 1.86 µM (active) in data set [10]. Also, the EC50 in data set [12] is given as > 195 µM (not active). The half-maximal activity concentration (AC50) in the data set on INS1 is 7.43 µM (active).
`c1ccc(C2OCC3(CO2)COC(c2ccccc2)OC3)cc1` (stereo unspecified): the AC50 entry on Cytochrome P450 2D6 is on record as “inconclusive”.

Values taken from ChEMBL document CHEMBL1201862, “PubChem BioAssay data set” (2004).
